Assay results reported in ChEMBL document CHEMBL3259654, “Dihydrothiophene-condensed chromones from a marine-derived fungus Penicillium oxalicum and their structure-bioactivity relationship” (Bioorg Med Chem Lett, 2014).

Columns and labels:
[1] = Retention time of the compound by HPLC analysis; type: physicochemical
[2] = system: MOLT-4; assay: Cytotoxicity against human MOLT4 cells by MTT assay; type: functional, cell-based
[3] = Cytotoxicity against human BGC823 cells by MTT assay; type: functional, cell-based; details: BGC-823
[4] = system: HL-60; assay: Cytotoxicity against human HL60 cells by MTT assay; type: functional, cell-based
[5] = system: K562; assay: Cytotoxicity against human K562 cells by MTT assay; type: functional, cell-based
[6] = system: NCI-H1975; assay: Cytotoxicity against human NCI-H1975 cells by MTT assay; type: functional, cell-based
[7] = Cytotoxicity against human HuH7 cells by MTT assay; type: functional, cell-based; details: Huh-7
[8] = system: MCF7; assay: Cytotoxicity against human MCF7 cells by MTT assay; type: functional, cell-based
[9] = system: U-937; assay: Cytotoxicity against human U937 cells by MTT assay; type: functional, cell-based

SMILES | Retention_time [1] [min] | IC50 [2] [µM] | IC50 [3] [µM] | IC50 [4] [µM] | IC50 [5] [µM] | IC50 [6] [µM] | IC50 [7] [µM] | IC50 [8] [µM] | IC50 [9] [µM]
COC(=O)[C@@](O)(C[C@@H](O)C(=O)O)[C@@H]1Cc2c(oc3cc(C)cc(O)c3c2=O)S1 | 23.144 | 5.74 | 10.1 |  |  |  |  |  | 
COC(=O)C[C@](O)(C(=O)OC)[C@@H]1Cc2c(oc3cc(C)cc(O)c3c2=O)S1 |  | 1.36 | 1.96 | 2.96 | 8.8 | 5.45 | 6.33 | 4.32 | 4.16
COC(=O)[C@H](O)C[C@](O)(C(=O)OC)[C@@H]1Cc2c(oc3cc(C)cc(O)c3c2=O)S1 | 24.796 | 0.3 | 4.89 | 2.55 | 4.53 | 10.4 | 9.49 | 11.3 | 2.35
COC(=O)[C@H](O)C[C@](O)(C(=O)OC)[C@H]1Cc2c(oc3cc(C)cc(O)c3c2=O)S1 |  | 2.3 |  | 6.41 |  |  |  |  | 5
COC(=O)[C@@H](C[C@](O)(C(=O)OC)[C@@H]1Cc2c(oc3cc(C)cc(O)c3c2=O)S1)OC(=O)[C@](OC)(c1ccccc1)C(F)(F)F |  | 5.89 | 8.82 |  |  |  |  |  | 9.85
COC(=O)[C@@H](C[C@](O)(C(=O)OC)[C@@H]1Cc2c(oc3cc(C)cc(O)c3c2=O)S1)OC(=O)[C@@](OC)(c1ccccc1)C(F)(F)F |  | 4.81 | 5.53 | 7.54 | 1.34 |  |  |  | 9.04
COC(=O)[C@@H](C[C@](O)(C(=O)OC)[C@@H]1Cc2c(oc3cc(C)cc(O)c3c2=O)S1)OC(=O)c1ccc([N+](=O)[O-])cc1 |  | 3.66 | 8.01 | 3.96 | 9.68 | 6.97 | 6 | 7.37 | 6.37
COC(=O)[C@@H](C[C@](O)(C(=O)OC)[C@@H]1Cc2c(oc3cc(C)cc(OC(=O)c4ccc([N+](=O)[O-])cc4)c3c2=O)S1)OC(=O)c1ccc([N+](=O)[O-])cc1 |  | 2.96 | 4.49 | 3.09 | 1.04 |  | 8.77 | 6.05 | 6.34
COC(=O)[C@@H](C[C@](O)(C(=O)OC)[C@@H]1Cc2c(oc3cc(C)cc(O)c3c2=O)S1)OC(=O)c1cc(C(F)(F)F)cc(C(F)(F)F)c1 |  | 3.02 | 3.95 | 3.79 | 6.9 | 2.33 |  | 6.94 | 4.06
COC(=O)[C@@H](C[C@](OC(=O)c1cc(C(F)(F)F)cc(C(F)(F)F)c1)(C(=O)OC)[C@@H]1Cc2c(oc3cc(C)cc(OC(=O)c4cc(C(F)(F)F)cc(C(F)(F)F)c4)c3c2=O)S1)OC(=O)c1cc(C(F)(F)F)cc(C(F)(F)F)c1 |  |  |  |  |  |  |  |  | 7.2
COC(=O)[C@@H](C[C@](O)(C(=O)OC)[C@@H]1Cc2c(oc3cc(C)cc(OC(=O)c4ccccc4)c3c2=O)S1)OC(=O)c1ccccc1 |  | 3.99 |  | 4.46 |  |  |  |  | 
COC(=O)[C@@H](C[C@](O)(C(=O)OC)[C@H]1Cc2c(oc3cc(C)cc(O)c3c2=O)S1)OC(=O)[C@@](OC)(c1ccccc1)C(F)(F)F |  | 6.03 | 8.81 | 9.14 |  |  |  |  | 
